Assay results published in the supplement of paper PMC11451515.

Tested on: NOMO1
Assay: cell viability relative to DMSO control; higher = less cytotoxic
Conditions: 48 h
Summary of the method: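 NOMO1 or SEM (500 cells/well) or P12-Ichikawa (1000 cells/well) leukemia cells were adapted for at least four passages in each medium. They were seeded in 1536-well plates (5 μl) and pin-dosed with library compounds in DMSO over an 11-point threefold series, 47 μM to 0.79 nM. CellTiter-Glo One luminescence was read after 48 h at 37°C. Viability is the per-plate percentage relative to DMSO wells, with cell-free wells as background.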

[1] = HPLM + 10% dialyzed FBS, 0.000781 µM
[2] = HPLM + 10% dialyzed FBS, 0.00234 µM
[3] = HPLM + 10% dialyzed FBS, 0.00702 µM
[4] = HPLM + 10% dialyzed FBS, 0.0211 µM
[5] = HPLM + 10% dialyzed FBS, 0.0632 µM
[6] = HPLM + 10% dialyzed FBS, 0.19 µM
[7] = HPLM + 10% dialyzed FBS, 0.569 µM
[8] = HPLM + 10% dialyzed FBS, 1.71 µM
[9] = HPLM + 10% dialyzed FBS, 5.12 µM
[10] = HPLM + 10% dialyzed FBS, 15.4 µM
[11] = HPLM + 10% dialyzed FBS, 46.1 µM
[12] = RPMI 5 mM glucose + 10% FBS, 0.000781 µM
[13] = RPMI 5 mM glucose + 10% FBS, 0.00234 µM
[14] = RPMI 5 mM glucose + 10% FBS, 0.00702 µM
[15] = RPMI 5 mM glucose + 10% FBS, 0.0211 µM
[16] = RPMI 5 mM glucose + 10% FBS, 0.0632 µM
[17] = RPMI 5 mM glucose + 10% FBS, 0.19 µM
[18] = RPMI 5 mM glucose + 10% FBS, 0.569 µM
[19] = RPMI 5 mM glucose + 10% FBS, 1.71 µM
[20] = RPMI 5 mM glucose + 10% FBS, 5.12 µM
[21] = RPMI 5 mM glucose + 10% FBS, 15.4 µM
[22] = RPMI 5 mM glucose + 10% FBS, 46.1 µM
[23] = RPMI 5 mM glucose + 10% dialyzed FBS, 0.000781 µM
[24] = RPMI 5 mM glucose + 10% dialyzed FBS, 0.00234 µM
[25] = RPMI 5 mM glucose + 10% dialyzed FBS, 0.00702 µM
[26] = RPMI 5 mM glucose + 10% dialyzed FBS, 0.0211 µM
[27] = RPMI 5 mM glucose + 10% dialyzed FBS, 0.0632 µM
[28] = RPMI 5 mM glucose + 10% dialyzed FBS, 0.19 µM
[29] = RPMI 5 mM glucose + 10% dialyzed FBS, 0.569 µM
[30] = RPMI 5 mM glucose + 10% dialyzed FBS, 1.71 µM
[31] = RPMI 5 mM glucose + 10% dialyzed FBS, 5.12 µM
[32] = RPMI 5 mM glucose + 10% dialyzed FBS, 15.4 µM
[33] = RPMI 5 mM glucose + 10% dialyzed FBS, 46.1 µM

Row | Structure (SMILES) | cell viability [1] [%] | cell viability [2] [%] | cell viability [3] [%] | cell viability [4] [%] | cell viability [5] [%] | cell viability [6] [%] | cell viability [7] [%] | cell viability [8] [%] | cell viability [9] [%] | cell viability [10] [%] | cell viability [11] [%] | cell viability [12] [%] | cell viability [13] [%] | cell viability [14] [%] | cell viability [15] [%] | cell viability [16] [%] | cell viability [17] [%] | cell viability [18] [%] | cell viability [19] [%] | cell viability [20] [%] | cell viability [21] [%] | cell viability [22] [%] | cell viability [23] [%] | cell viability [24] [%] | cell viability [25] [%] | cell viability [26] [%] | cell viability [27] [%] | cell viability [28] [%] | cell viability [29] [%] | cell viability [30] [%] | cell viability [31] [%] | cell viability [32] [%] | cell viability [33] [%]
1 | COC1=CC2=NC=CC(=C2C=C1)OC3=CN=C(NC(=O)C/4=C(C)/N(CC(C)(C)O)N(C4=O)C5=CC=CC=C5)C=C3 | 82 | 87.4 | 86.3 | 101 | 103 | 107 | 98.9 | 96.4 | 69.1 | 88 | 62.1 | 78.8 | 92 | 88.6 | 95 | 91.7 | 91.7 | 91.2 | 98.7 | 85.6 | 93.4 | 81.8 | 73.7 | 86.8 | 91.6 | 88.2 | 97.7 | 83.1 | 96.6 | 84.8 | 77.2 | 94.1 | 64
2 | O=C(NOCC(O)CO)c1cc(Br)c(F)c(F)c1Nc1ccc(I)cc1F (stereo unspecified) | 65.8 | 77.1 | 72.1 | 79.8 | 59.2 | 50.5 | 30.1 | 32.6 | 29 | 33.9 | 20 | 69.1 | 90.6 | 67.6 | 73.3 | 66.5 | 50.5 | 28.1 | 33.7 | 27.5 | 28.8 | 27.8 | 81.3 | 84.3 | 59.2 | 58.1 | 49.8 | 40.9 | 27.5 | 30.3 | 26.7 | 31.2 | 24.6
3 | CC1(C)CCC[C@]2(C)[C@H]3CC(=O)O[C@]3(C)CC[C@@H]12 | 126 | 107 | 113 | 114 | 118 | 121 | 123 | 112 | 126 | 120 | 98.6 | 119 | 111 | 118 | 121 | 107 | 112 | 129 | 98 | 111 | 110 | 81.2 | 122 | 112 | 125 | 120 | 125 | 106 | 110 | 105 | 106 | 101 | 92.5
4 | COc1ccc(CC2NCCc3cc(OC)c(OC)cc32)cc1OC (stereo unspecified) | 91.9 | 87.5 | 82.6 | 103 | 102 | 98.7 | 91.6 | 87.4 | 101 | 93.7 | 98.4 | 88.1 | 86.2 | 87 | 90.8 | 86.8 | 89.3 | 89.7 | 94.7 | 86.6 | 89.4 | 97.1 | 79.5 | 84.1 | 83.9 | 91.2 | 86.3 | 89.2 | 82.9 | 91 | 89.5 | 73.3 | 85.4
5 | Cc1nc(NC(=O)N2CCC[C@H]2C(N)=O)sc1-c1ccnc(C(C)(C)C(F)(F)F)c1 | 99.5 | 96.2 | 105 | 81.2 | 85.9 | 81.5 | 75.9 | 70.1 | 46.2 | 44.4 | 71.7 | 86.8 | 84.8 | 88 | 82.7 | 87.5 | 80.2 | 79.4 | 77.8 | 56.3 | 55.3 | 82.5 | 79.6 | 84.8 | 82.2 | 76.8 | 82.2 | 75.6 | 67.8 | 69.2 | 48.3 | 48.2 | 87.7
6 | C#Cc1cccc(Nc2ncnc3cc(OCCOC)c(OCCOC)cc23)c1 | 94.2 | 104 | 101 | 83.7 | 108 | 86 | 90.9 | 110 | 79.3 | 75.3 | 45.7 | 85.4 | 96.9 | 102 | 102 | 93.2 | 91.8 | 95 | 93.7 | 89.7 | 85.1 | 70.7 | 92.2 | 85.5 | 88.9 | 83.4 | 86.6 | 83.8 | 85.4 | 89 | 77.6 | 84 | 50.2
7 | CCCCn1c(=O)n(Cc2ccccc2F)c(=O)c2nc(Cc3ccc(NC(C)=O)cc3)[nH]c21 | 97.6 | 155 | 75.7 | 24.9 | 52.4 | 77.6 | 86 | 76.5 | 78.6 | 68.6 | 71.2 | 82.3 | 82.9 | 78.1 | 79.5 | 82.5 | 77.8 | 83.9 | 82.4 | 79.5 | 86.7 | 76.9 | 107 | 108 | 106 | 104 | 125 | 59.5 | 57.7 | 89.6 | 69.4 | 63.8 | 68.8
